Tests used:
Polygonum persicaria = test: greenhouse post-emergence herbicidal test; format: in vivo; details: Polygonum persicaria (lady's-thumb), application rates of 0.5 or 0.25 kg/ha
From the text: (§1) The seeds of the test plants were sown separately for each species. For the post-emergence treatment, the test plants were first grown to a height of 3 to 15 cm, depending on the plant habit, and only then treated with the active compounds which had been suspended or emulsified in water. The test plants were for this purpose either sown directly and grown in the same containers, or they were first grown separately as seedlings and transplanted into the test containers a few days prior to treatment. The application rate for the post-emergence treatment was 0.5 or 0.25 kg of a.s. (active substance)/ha. Depending on the species, the plants were kept at 10-25° C. or 20-35° C. The test period extended over 2 to 4 weeks. During this time, the plants were tended, and their response to the individual treatments was evaluated. The evaluation was carried out using a scale from 0 to 100. 100 means no emergence of the plants, or complete destruction of at least the aerial parts and 0 means no damage, or normal course of growth. The plants used in the greenhouse experiments were of the following species: [table]

Echinochloa crus-galli = test: greenhouse post-emergence herbicidal test; format: in vivo; details: Echinochloa crus-galli (barnyard grass), application rates of 0.5 or 0.25 kg/ha
From the text: as §1

Brachiaria plantaginea = test: greenhouse post-emergence herbicidal test; format: in vivo; details: Brachiaria plantaginea (alexander grass), application rates of 0.5 or 0.25 kg/ha
From the text: as §1

Chenopodium album = test: greenhouse post-emergence herbicidal test; format: in vivo; details: Chenopodium album (lamb's-quarters), application rates of 0.5 or 0.25 kg/ha
From the text: as §1

Cc1c(C(=O)c2cnn(C3CCCC3)c2O)ccc(S(C)(=O)=O)c1C1=NOCC1 [compound 4.6, 4-[2-Methyl-3-(4,5-dihydroisoxazol-3-yl)-4-methylsulfonylbenzoyl]-1-cyclopentyl-5-hydroxy-1H-pyrazole]
melting point: 135 to 140 °C
post-emergence action (Polygonum persicaria): very good
post-emergence action (Echinochloa crus-galli): very good
post-emergence action (Brachiaria plantaginea): very good
post-emergence action (Chenopodium album): very good

From patent publication US6713436B1, “1-cycloalkylpyrazolyl-benzoyl derivatives” (BASF Aktiengesellschaft, priority 1999, dated 2004)
